The results in this text go back to patent US11439707B2, “Hypocrellin derivative substituted both in a peri-position and in 2-position by amino, preparation method, and application thereof” (priority 2017, dated 2022).

Data set [1] can be described thus: absorption spectrum (maximum absorption wavelength, molar extinction coefficient). It counts as physicochemical.
The nature of data set [2]: singlet oxygen efficiency test, reference rose bengal. The format is physicochemical.

Turning to `COCCOCCOCCOCCOCCOCCOCCOCCOCCOCCOCCOCCOCCC(=O)OCCOCCNc1c2c3c4c(c(OC)c(=O)c5c(O)cc(OC)c(c6c(OC)cc(NCCOCCOC(=O)CCOCCOCCOCCOCCOCCOCCOCCOCCOCCOCCOCCOCCOC)c(c1=O)c63)c54)CC(C)=C2` [HC-1c-PEG12], in data set [1], the maximum absorption wavelength came to 626 nm and the molar extinction coefficient is reported as 32,500 M^−1cm^−1. The singlet oxygen yield in data set [2] came to 35%.

In the case of `COCCOCCOCCOCCOCCOCCOCCC(=O)OCCOCCNc1c2c3c4c(c(OC)c(=O)c5c(NCCOCCOC(=O)CCOCCOCCOCCOCCOCCOCCOC)cc(OC)c(c6c(OC)cc(O)c(c1=O)c63)c54)CC(C)=C2` [HC-1d-PEG6], in data set [1], the maximum absorption wavelength was determined as 622 nm and the molar extinction coefficient is recorded as 34,500 M^−1cm^−1. The singlet oxygen yield in data set [2] worked out at 34%.

As for `COc1c2c3c4c(c(NCCOCCO)c(=O)c5c(O)cc(OC)c(c6c(OC)cc(NCCOCCO)c(c1=O)c63)c54)C=C(C)C2` [HC-1d], in data set [1], the maximum absorption wavelength is 626 nm and the molar extinction coefficient is given as 28,500 M^−1cm^−1. This compound also had a singlet oxygen yield in data set [2] of 32%.

Consider `COCCOCCC(=O)OCCNc1c(NCCOC(=O)CCOCCOC)c2c(=O)cc(OC)c3c4c(OC)cc(=O)c5c(O)c(OC)c6c(c(c1C=C(C)C6)c23)c54` [HC-2a-PEG1], for which, in data set [1], the maximum absorption wavelength came to 622 nm and the molar extinction coefficient is listed as 30,000 M^−1cm^−1. The compound further had a singlet oxygen yield in data set [2] of 30%.

As for `COc1c(O)c2c(=O)cc(OC)c3c4c(OC)cc(=O)c5c(NCCO)c(NCCO)c6c(c(c1CC(C)=C6)c23)c54` [HC-2a], in data set [1], the maximum absorption wavelength worked out at 627 nm and the molar extinction coefficient stood at 28.500 M⁻¹ cm⁻¹. Further, the singlet oxygen yield in data set [2] turned out to be 32%.

As to `COc1c(NCCO)c2c(=O)cc(OC)c3c4c(OC)cc(=O)c5c(O)c(NCCO)c6c(c(c1CC(C)=C6)c23)c54` [HC-2b], in data set [1], the maximum absorption wavelength worked out at 624 nm and the molar extinction coefficient turned out to be 27.500 M⁻¹ cm⁻¹. For the same compound, the singlet oxygen yield in data set [2] is 33%.

Take `COCCOCCOCCOCCOCCOCCOCCOCCOCCOCCOCCOCCOCCC(=O)OCCNc1c2c3c4c(c(OC)c(=O)c5c(O)cc(OC)c(c6c(OC)cc(NCCOC(=O)CCOCCOCCOCCOCCOCCOCCOCCOCCOCCOCCOCCOCCOC)c(c1=O)c63)c54)CC(C)=C2` [HC-2c-PEG12]: in data set [1], the maximum absorption wavelength came out at 630 nm and the molar extinction coefficient is reported as 32,500 M^−1cm^−1. Also, the singlet oxygen yield in data set [2] was found to be 34%.

For `COc1c2c3c4c(c(NCCO)c(=O)c5c(O)cc(OC)c(c6c(OC)cc(NCCO)c(c1=O)c63)c54)C=C(C)C2` [HC-2d], in data set [1], the maximum absorption wavelength came out at 625 nm and the molar extinction coefficient is recorded as 28,500 M^−1cm^−1. In addition, the singlet oxygen yield in data set [2] was 34%.

`COc1c(O)c2c(=O)cc(OC)c3c4c(OC)cc(=O)c5c(NCC(=O)O)c(NCC(=O)O)c6c(c(c1CC(C)=C6)c23)c54` [HC-7a]: in data set [1], the maximum absorption wavelength was 620 nm and the molar extinction coefficient was 27,500 M^−1cm^−1. In data set [2], this compound registered a singlet oxygen yield of 28%.

For the compound `COc1c(NCC(=O)O)c2c(=O)cc(OC)c3c4c(OC)cc(=O)c5c(O)c(NCC(=O)O)c6c(c(c1CC(C)=C6)c23)c54` [HC-7b], in data set [1], the maximum absorption wavelength is reported as 622 nm and the molar extinction coefficient is 28,500 M^−1cm^−1. For the same compound, in data set [2], the singlet oxygen yield worked out at 25%.

As for `COc1c2c3c4c(c(NCC(=O)O)c(=O)c5c(NCC(=O)O)cc(OC)c(c6c(OC)cc(O)c(c1=O)c63)c54)C=C(C)C2` [HC-7c], in data set [1], the maximum absorption wavelength was found to be 630 nm and the molar extinction coefficient is on record as 29,500 M^−1cm^−1. The compound further registered a singlet oxygen yield in data set [2] of 27%.

Take `COc1c2c3c4c(c(NCC(=O)O)c(=O)c5c(O)cc(OC)c(c6c(OC)cc(NCC(=O)O)c(c1=O)c63)c54)C=C(C)C2` [HC-7d]: in data set [1], the maximum absorption wavelength was determined as 626 nm and the molar extinction coefficient is given as 26,000 M^−1cm^−1. In data set [2], this compound had a singlet oxygen yield of 25%.

With `COCCOCCNC(=O)CCCNc1c(NCCCC(=O)NCCOCCOC)c2c(=O)cc(OC)c3c4c(OC)cc(=O)c5c(O)c(OC)c6c(c(c1C=C(C)C6)c23)c54` [HC-8a-NH-PEG1], in data set [1], the maximum absorption wavelength turned out to be 621 nm and the molar extinction coefficient is on record as 30,500 M^−1cm^−1. In data set [2], this compound came in with a singlet oxygen yield of 30%.

With `COc1c(O)c2c(=O)cc(OC)c3c4c(OC)cc(=O)c5c(NCCCC(=O)NCC[N+](C)(C)C)c(NCCCC(=O)NCC[N+](C)(C)C)c6c(c(c1CC(C)=C6)c23)c54` [HC-8a-NH—C2-N^+], in data set [1], the maximum absorption wavelength came to 622 nm and the molar extinction coefficient is 30,000 M^−1cm^−1. This compound also came in with a singlet oxygen yield in data set [2] of 29%.

As to `COc1c(O)c2c(=O)cc(OC)c3c4c(OC)cc(=O)c5c(NCCCC(=O)NCCS(=O)(=O)O)c(NCCCC(=O)NCCS(=O)(=O)O)c6c(c(c1CC(C)=C6)c23)c54` [HC-8a-NH—C2-SO3H], in data set [1], the maximum absorption wavelength stood at 620 nm and the molar extinction coefficient was 31,000 M^−1cm^−1. In data set [2], this compound displayed a singlet oxygen yield of 32%.

Take `COCCOC(=O)CCCNc1c(NCCCC(=O)OCCOC)c2c(=O)cc(OC)c3c4c(OC)cc(=O)c5c(O)c(OC)c6c(c(c1C=C(C)C6)c23)c54` [HC-8a-PEG1]: in data set [1], the maximum absorption wavelength is reported as 621 nm and the molar extinction coefficient is given as 30,000 M^−1cm^−1. The compound further gave a singlet oxygen yield in data set [2] of 28%.

Regarding `COc1c(O)c2c(=O)cc(OC)c3c4c(OC)cc(=O)c5c(NCCCC(=O)O)c(NCCCC(=O)O)c6c(c(c1CC(C)=C6)c23)c54` [HC-8a], in data set [1], the maximum absorption wavelength is 620 nm and the molar extinction coefficient is recorded as 28,500 M^−1cm^−1. For the same compound, the singlet oxygen yield in data set [2] was 26%.

As for `COc1c(NCCCC(=O)OCCCC[N+](C)(C)C)c2c(=O)cc(OC)c3c4c(OC)cc(=O)c5c(O)c(NCCCC(=O)OCCCC[N+](C)(C)C)c6c(c(c1CC(C)=C6)c23)c54` [HC-8b-C4-N^+], in data set [1], the maximum absorption wavelength was 625 nm and the molar extinction coefficient is 31,000 M^−1cm^−1. The compound further displayed a singlet oxygen yield in data set [2] of 32%.

`COc1c(NCCCC(=O)NCCCC[N+](C)(C)C)c2c(=O)cc(OC)c3c4c(OC)cc(=O)c5c(O)c(NCCCC(=O)NCCCC[N+](C)(C)C)c6c(c(c1CC(C)=C6)c23)c54` [HC-8b-NH—C4-N^+]: in data set [1], the maximum absorption wavelength amounted to 626 nm and the molar extinction coefficient is 30,500 M^−1cm^−1. The compound also gave a singlet oxygen yield in data set [2] of 32%.

In the case of `COc1c(NCCCC(=O)NCCCCS(=O)(=O)O)c2c(=O)cc(OC)c3c4c(OC)cc(=O)c5c(O)c(NCCCC(=O)NCCCCS(=O)(=O)O)c6c(c(c1CC(C)=C6)c23)c54` [HC-8b-NH—C4-SO3H], in data set [1], the maximum absorption wavelength is 624 nm and the molar extinction coefficient is reported as 31,500 M^−1cm^−1. The singlet oxygen yield in data set [2] came out at 33%.

As to `COCCOCCOCCOCCOCCOCCOC(=O)CCCNc1c(O)c2c(=O)cc(OC)c3c4c(OC)cc(=O)c5c(NCCCC(=O)OCCOCCOCCOCCOCCOCCOC)c(OC)c6c(c(c1C=C(C)C6)c23)c54` [HC-8b-PEG6], in data set [1], the maximum absorption wavelength is reported as 624 nm and the molar extinction coefficient is reported as 30,000 M^−1cm^−1. Besides, the singlet oxygen yield in data set [2] is given as 32%.

Take `COc1c(NCCCC(=O)O)c2c(=O)cc(OC)c3c4c(OC)cc(=O)c5c(O)c(NCCCC(=O)O)c6c(c(c1CC(C)=C6)c23)c54` [HC-8b]: in data set [1], the maximum absorption wavelength is reported as 622 nm and the molar extinction coefficient is given as 28,000 M^−1cm^−1. Moreover, the singlet oxygen yield in data set [2] worked out at 25%.

In the case of `COc1c2c3c4c(c(NCCCC(=O)OCCCCCC[N+](C)(C)C)c(=O)c5c(NCCCC(=O)OCCCCCC[N+](C)(C)C)cc(OC)c(c6c(OC)cc(O)c(c1=O)c63)c54)C=C(C)C2` [HC-8c-C6-N^+], in data set [1], the maximum absorption wavelength was 632 nm and the molar extinction coefficient was 32,500 M^−1cm^−1. The compound further gave a singlet oxygen yield in data set [2] of 35%.

As for `COc1c2c3c4c(c(NCCCC(=O)NCCCCCC[N+](C)(C)C)c(=O)c5c(NCCCC(=O)NCCCCCC[N+](C)(C)C)cc(OC)c(c6c(OC)cc(O)c(c1=O)c63)c54)C=C(C)C2` [HC-8c-NH—C6-N^+], in data set [1], the maximum absorption wavelength was found to be 634 nm and the molar extinction coefficient was 32,000 M^−1cm^−1. For the same compound, in data set [2], the singlet oxygen yield is recorded as 36%.

For `COc1c2c3c4c(c(NCCCC(=O)NCCCCCCS(=O)(=O)O)c(=O)c5c(NCCCC(=O)NCCCCCCS(=O)(=O)O)cc(OC)c(c6c(OC)cc(O)c(c1=O)c63)c54)C=C(C)C2` [HC-8c-NH—C6-SO3H], in data set [1], the maximum absorption wavelength is 632 nm and the molar extinction coefficient was 33,500 M^−1cm^−1. The compound also came in with a singlet oxygen yield in data set [2] of 35%.

In the case of `COCCOCCOCCOCCOCCOCCOCCOCCOCCOCCOCCOCCOC(=O)CCCNc1c2c3c4c(c(OC)c(=O)c5c(O)cc(OC)c(c6c(OC)cc(NCCCC(=O)OCCOCCOCCOCCOCCOCCOCCOCCOCCOCCOCCOCCOC)c(c1=O)c63)c54)CC(C)=C2` [HC-8c-PEG12], in data set [1], the maximum absorption wavelength was determined as 628 nm and the molar extinction coefficient is listed as 32,500 M^−1cm^−1. This compound also returned a singlet oxygen yield in data set [2] of 38%.

Turning to `COc1c2c3c4c(c(NCCCC(=O)NCCCC[N+](C)(C)C)c(=O)c5c(O)cc(OC)c(c6c(OC)cc(NCCCC(=O)NCCCC[N+](C)(C)C)c(c1=O)c63)c54)C=C(C)C2` [HC-8d-NH—C4-N^+], in data set [1], the maximum absorption wavelength is reported as 624 nm and the molar extinction coefficient is 30,500 M^−1cm^−1. Moreover, in data set [2], the singlet oxygen yield stood at 33%.

As for `COc1c2c3c4c(c(NCCCC(=O)NCCCCS(=O)(=O)O)c(=O)c5c(O)cc(OC)c(c6c(OC)cc(NCCCC(=O)NCCCCS(=O)(=O)O)c(c1=O)c63)c54)C=C(C)C2` [HC-8d-NH—C4-SO3H], in data set [1], the maximum absorption wavelength turned out to be 626 nm and the molar extinction coefficient was 30,500 M^−1cm^−1. This compound yielded a singlet oxygen yield in data set [2] of 32%.

As for `COCCOCCOCCOCCOCCOCCOC(=O)CCCNc1c2c3c4c(c(OC)c(=O)c5c(NCCCC(=O)OCCOCCOCCOCCOCCOCCOC)cc(OC)c(c6c(OC)cc(O)c(c1=O)c63)c54)CC(C)=C2` [HC-8d-PEG6], in data set [1], the maximum absorption wavelength was found to be 624 nm and the molar extinction coefficient is 31,500 M^−1cm^−1. This compound also yielded a singlet oxygen yield in data set [2] of 32%.
